Assay results from patent US20060281807A1, “Quassinoid compositions for the treatment of cancer and other proliferative diseases” (Tapestry Pharmaceuticals, Inc., priority 2005, published 2006).

Tests used:
[1] = test system: Colon 38 (murine colon adenocarcinoma); assay: Disk diffusion assay, zone of inhibition, Colon 38; zone differentials, potency and product; type: cell-based; design: key to C38ΔL1210 / C38ΔCFU: difference of zone of inhibition values, in zone units; settings: for Sum: C38ΔL1210 plus C38ΔCFU; for C38ΔL1210 / C38ΔCFU: difference between zone of inhibition values; for C38ΔL1210: Colon38 vs L1210 leukemia; for C38ΔCFU: Colon38 vs normal cell CFU-GM; for Product: potency multiplied by zone differentials
Procedure: A disk diffusion assay was performed to define the differential cell killing ability of 15-O-(3′-hydroxy-3′-isopropyl-4′-methylpentanoyl)bruceolide. Seven cell types were assayed: L1210 (ATCC CCL-219) (murine leukemia), CCRF-CEM (ATCC CCL-119) (human leukemia), Colon 38 (murine colon adenocarcinoma), HCT116 (ATCC CCL-247) (human colorectal carcinoma), H125 (human lung carcinoma). The murine and human granulocyte/macrophage progenitor cell line (CFU-GM), served as controls.
Colon 38 cells (about 1 gram) were cut into small fragments in 15 mL of Hank's Balanced Salt Solution (HBSS) over a 100-mesh sieve and gently forced through by the scissors with HBSS constantly perfusing the sieve. The resulting material was then drawn into and out of a 5 mL syringe without a needle to further disperse the cell clumps. The cell solution was diluted and plated in 0.3% agarose in DMEM plus 10% heat-inactivated Bovine Calf Serum (BCS). For plating of all of the cell types (except controls), the 60 mm plates were first prepared with a hard agar bottom layer (0.6% agar in RPMI-1640 plus 15% BCS).
A 15 μl sample of each compound was dropped onto a 6.5 mm disk (Baxter filter disks). The disks were allowed to dry overnight and then placed close to the edge of a petri dish. Depending upon the cell type, the dishes were incubated for 7 to 10 days, and examined by an inverted stereo-microscope (10×) for measurement of the zone of inhibition. The zone of inhibition was measured from the edge of the filter disk to the beginning of normal-sized colony formation. The diameter of the filter disk, 6.5 mm, was arbitrarily taken as a zone of 200 units. Compounds that were selective for killing solid tumors, as compared to leukemia or normal cells (“solid tumor selective”) were defined as those compounds which produced a difference in zones between solid tumor cells and either normal or leukemia cells of at least 250 units. The results of this analysis are set forth in Table 4, which illustrates the relative diameters of the zones of inhibition by various drugs on the growth of the respective cell types at various drug dilutions.
The degree of differential sensitivity of several inventive compounds was compared with respect to the Colon38 cell line, the L1210 cell line, and the control CFU-GM cell lines. The degree of differential sensitivity was estimated by calculating the difference between the zone of inhibition values, as determined in Example 6, for the solid tumor compared to either the leukemia (C38ΔL1210) or normal cell (C38ΔCFU).
The potency of each of several inventive compounds was determined by identifying the dilution required to yield an average zone of inhibition of 500 units for the Colon38 cell type. Then the potency and the zone differentials were multiplied to define a “product” (see Table 5), which can be used to rank the compounds tested for their potential for further development; the greater the product value the greater the probability of useful chemotherapeutic utility.

LS-174T = assay: MTT cytotoxicity assay (% kill), LS-174T; type: cell-based, human; settings: 1.0 μg/mL, MTT after five days
Procedure: (§1) The following human tumor cell lines were obtained and cultured in sextuplicate microwells at 37° C. and 5% CO2 in humidified air and in 10% FBS in Eagles MEM: SK—N—FI, SK—N-AS, LS-174T, WiDr, HuTu-80, MCF7, NCI-AR, MES-Sar, and PL-45. Cells from each cell line were separately treated with an amount of one of the compounds of Formula I, II, or III (see Table 1). Cells were exposed to each compound (0.1 μg/mL or 1.0 μg/mL) for one hour or 24 hours, rinsed with drug-free media, and incubated for an additional five days. The number of viable cells after five days was measured using an MTT (3-(4,5-dimethylthiazol-2-yl)-2,5-diphenyltetrazolium bromide) assay (see, e.g., Mosmann, J. Immunol. Methods, 65(1-2), 55-63 (1983)).
(§2) The cytotoxicity of each drug was determined and expressed as the percent of cells killed (“% kill”).

SK-N-AS = assay: MTT cytotoxicity assay (% kill), SK-N-AS; type: cell-based, human; settings: 1.0 μg/mL, MTT after five days
Procedure: as §1, §2

[2] = listed as 15-O-(allyloxycarbonyl) bruceolide

SMILES	Sum [1]	C38ΔL1210 [1]	C38ΔCFU [1]	Product [1]	% Kill, LS-174T (LS-174T; 1 h exposure) [%]	% Kill, LS-174T (LS-174T; 24 h exposure) [%]	% Kill, SK-N-AS (SK-N-AS; 1 h exposure) [%]	% Kill, SK-N-AS (SK-N-AS; 24 h exposure) [%]	Sum [1, 2]	C38ΔL1210 [1, 2]	C38ΔCFU [1, 2]	Product [1, 2]
COC(=O)C12OCC34C(CC5C(C)=C(O)C(=O)CC5(C)C3C(O)C1O)OC(=O)C(OC(=O)CC(C)(C)O)C24 (centres unmarked) [15-O-(3′-hydroxy-3′-methylbutanoyl)-bruceolide]	950	400	550	2850	29	64						
COC(=O)C12OCC34C(CC5C(C)=C(O)C(=O)CC5(C)C3C(O)C1O)OC(=O)C(OC(=O)Cc1ccccc1)C24 (centres unmarked) [15-O-phenylacetyl bruceolide]	1000	500	500	4000	20	61	0	38				
COC(=O)[C@@]12OC[C@]34[C@H]([C@@H](O)[C@@H]1O)[C@@]1(C)CC(=O)C(O)=C(C)[C@@H]1C[C@H]3OC(=O)[C@H](OC(=O)C=C1CCCCC1)[C@@H]24 [15-O-(cyclohexylideneacetyl)-bruceolide]	700	350	350	2800	13	63						
COC(=O)C12OCC34C(CC5C(C)=C(O)C(=O)CC5(C)C3C(O)C1O)OC(=O)C(OC(=O)CC1(O)CCCCC1)C24 (centres unmarked) [15-O-[(1′-hydroxycyclohexyl)-acetyl]-bruceolide]	750	300	450	3000	23	62	16	80				
COC(=O)[C@@]12OC[C@]34[C@H]([C@@H](O)[C@@H]1O)[C@@]1(C)CC(=O)C(O)=C(C)[C@@H]1C[C@H]3OC(=O)[C@H](OC(=O)CC1(O)CCCC1)[C@@H]24 [15-O-[(1′-hydroxycyclopentyl)-acetyl]-bruceolide]	1300	600	700	5200	36	65						
COC(=O)C12OCC34C(CC5C(C)=C(O)C(=O)CC5(C)C3C(O)C1OC(=O)OCC1COC(C)(C)O1)OC(=O)C(OC(=O)OCC1COC(C)(C)O1)C24 (centres unmarked) [12,15-O,O-bis(Solketyloxycarbonyl)-bruceolide]	1000	400	600	2000			3	5				
C=CCOC(=O)O[C@H]1C(=O)O[C@@H]2C[C@H]3C(C)=C(O)C(=O)C[C@]3(C)[C@H]3[C@@H](O)[C@H](O)[C@@]4(C(=O)OC)OC[C@]32[C@@H]14 [15-O-(allyloxycarbonyl)-bruceolide]	1050	500	550	4100	1	43	1	43	600	350	250	3600
COC(=O)[C@@]12OC[C@]34[C@H]([C@@H](O)[C@@H]1O)[C@@]1(C)CC(=O)C(O)=C(C)[C@@H]1C[C@H]3OC(=O)[C@H](OC(=O)CC(C)(C)C)[C@@H]24 [15-O-(3′,3′-dimethylbutanoyl)-bruceolide]	800	450	350	3200	7	60	0	62				
COC(=O)C12OCC34C(CC5C(C)=C(O)C(=O)CC5(C)C3C(O)C1O)OC(=O)C(OC(=O)OCC1COC(C)(C)O1)C24 (centres unmarked) [15-O-(solketyloxycarbonyl)-bruceolide]	950	400	550	1900			0	28				
COC(=O)C12OCC34C(CC5C(C)=C(O)C(=O)CC5(C)C3C(O)C1O)OC(=O)C(OC(=O)C=C1CCCC1)C24 (centres unmarked) [15-O-(cyclopentylideneacetyl)-bruceolide]	800	350	450	4000	0	50	0	50				
CCC(O)(CC)CC(=O)OC1C(=O)OC2CC3C(C)=C(O)C(=O)CC3(C)C3C(O)C(O)C4(C(=O)OC)OCC23C14 (centres unmarked) [15-O-(3′-ethyl-3′-hydroxypentanoyl)-bruceolide]	850	350	500	3400	10	50	6	71				
C=CCOC(=O)OC1C(=O)OC2CC3C(C)=C(O)C(=O)CC3(C)C3C(O)C(OC(=O)OCC=C)C4(C(=O)OC)OCC23C14 (centres unmarked) [12,15-O,O-bis-(allyloxycarbonyl)-bruceolide]	650	300	350	650			0	2				
CCC(=CC(=O)O[C@H]1C(=O)O[C@@H]2C[C@H]3C(C)=C(O)C(=O)C[C@]3(C)[C@H]3[C@@H](O)[C@H](O)[C@@]4(C(=O)OC)OC[C@]32[C@@H]14)CC [15-O-(3′-ethyl-2′-pentene-oyl)-brucelide]					24	64	0	66				
CCCCCC(=O)OC1C(=O)OC2CC3C(C)=C(O)C(=O)CC3(C)C3C(O)C(O)C4(C(=O)OC)OCC23C14 (centres unmarked) [15-O-hexanoylbruceolide]	600	400	200	600	19	57	0	41				
COC(=O)C12OCC34C(CC5C(C)=C(O)C(=O)CC5(C)C3C(O)C1O)OC(=O)C(OC(=O)C=Cc1ccccc1)C24 (centres unmarked) [15-O-cinnamyl-bruceolide]					16	64	0	61				
COC(=O)C12OCC34C(CC5C(C)=C(O)C(=O)CC5(C)C3C(O)C1OC(=O)C=C(C)C(C)C)OC(=O)C(OC(=O)C=C(C)C(C)C)C24 (centres unmarked) [12-O-(3,4-dimethyl-2-pentenoyl)-bruceantin]							0	0				
CCCCCCCCC=CCCCCCCCC(=O)OC1C(=O)OC2CC3C(C)=C(O)C(=O)CC3(C)C3C(O)C(O)C4(C(=O)OC)OCC23C14 (stereo not drawn) [15-O-(cis-9′-octadecenoyl)-bruceolide]					4	13	0	0				
